Results published in the NIST ThermoML archive (doi:10.1007/s10765-011-0997-8).
± gives the expanded uncertainty stated by the source.

Settings: 101.33 kPa, Liquid; for speed of sound: Linear variable-path acoustic interferometer; for mass density: Pycnometric method

In the case of `Cc1ccccc1C` [1,2-dimethylbenzene], the speed of sound (298.15 K) is reported as 1346 ± 2 m/s and the mass density (298.15 K) is reported as 875.9 ± 0.28 kg/m3.
For `Cc1ccc(C)cc1` [1,4-dimethylbenzene], the speed of sound (298.15 K) was 1310 ± 2 m/s and the mass density (298.15 K) was 856.65 ± 0.28 kg/m3.
`c1ccccc1` [benzene] gave a speed of sound (298.15 K) of 1298 ± 3 m/s and a mass density (298.15 K) of 873.64 ± 0.46 kg/m3.
`C1CCOCC1` [tetrahydropyran] gave a speed of sound (298.15 K) of 1272 ± 3 m/s and a mass density (308.15 K) of 868.81 ± 0.49 kg/m3.
With `Cc1ccccc1` [toluene] the speed of sound (298.15 K) was 1303 ± 2 m/s and the mass density (298.15 K) was 862.22 ± 0.31 kg/m3.
